According to PubChem BioAssay AID2060489 (Molecular Pharmacology Branch, DTP, NCI, 2025):

System: 922993-354-T-J3-PDC complex spheroids, viability
Experiment: Anticancer human tumor 922993-354-T-J3-PDC patient-derived endometrial carcinoma cell line growth inhibition [GQUAD]
Conditions: for IC50: curve of first compound; for viability, T/C: stronger effect = lower value
Outline: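 Viability of tumor cells grown as complex spheroids with endothelial and stromal cells, exposed to drug combinations. Top concentration at or near clinical Cmax (else 10 microM), diluted in half-log increments.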

[1] = second compound 0.0316 µM, first compound 0.0316 µM
[2] = second compound 0.0316 µM, first compound 0.1 µM
[3] = second compound 0.0316 µM, first compound 0.316 µM
[4] = second compound 0.0316 µM, first compound 1 µM
[5] = second compound 0.0316 µM, first compound 3.16 µM
[6] = second compound 0.0316 µM, first compound 10 µM
[7] = second compound 0.1 µM, first compound 0.0316 µM
[8] = second compound 0.1 µM, first compound 0.1 µM
[9] = second compound 0.1 µM, first compound 0.316 µM
[10] = second compound 0.1 µM, first compound 1 µM
[11] = second compound 0.1 µM, first compound 3.16 µM
[12] = second compound 0.1 µM, first compound 10 µM
[13] = second compound 0.316 µM, first compound 0.0316 µM
[14] = second compound 0.316 µM, first compound 0.1 µM
[15] = second compound 0.316 µM, first compound 0.316 µM
[16] = second compound 0.316 µM, first compound 1 µM
[17] = second compound 0.316 µM, first compound 3.16 µM
[18] = second compound 0.316 µM, first compound 10 µM
[19] = second compound 1 µM, first compound 0.0316 µM
[20] = second compound 1 µM, first compound 0.1 µM
[21] = second compound 1 µM, first compound 0.316 µM
[22] = second compound 1 µM, first compound 1 µM
[23] = second compound 1 µM, first compound 3.16 µM
[24] = second compound 1 µM, first compound 10 µM
[25] = second compound 3.16 µM, first compound 0.0316 µM
[26] = second compound 3.16 µM, first compound 0.1 µM
[27] = second compound 3.16 µM, first compound 0.316 µM
[28] = second compound 3.16 µM, first compound 1 µM
[29] = second compound 3.16 µM, first compound 3.16 µM
[30] = second compound 3.16 µM, first compound 10 µM
[31] = second compound 10 µM, first compound 0.0316 µM
[32] = second compound 10 µM, first compound 0.1 µM
[33] = second compound 10 µM, first compound 0.316 µM
[34] = second compound 10 µM, first compound 1 µM
[35] = second compound 10 µM, first compound 3.16 µM
[36] = second compound 10 µM, first compound 10 µM
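Also: spheroids exposed to compounds for seven days.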
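For viability, T/C in this document: 100% = DMSO vehicle control viability.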

## Nc1ccn(C2OC(CO)C(O)C2(F)F)c(=O)n1 (stereo unspecified) + Cc1[nH]c2ccc(F)cc2c1-c1nc2c3cccnc3c3ncccc3c2[nH]1
Second compound 0.0316 µM
  IC50: < 31.6 nM
Second compound 0.1 µM
  IC50: < 31.6 nM
Second compound 0.316 µM
  IC50: < 31.6 nM
Second compound 1 µM
  IC50: < 31.6 nM
Second compound 3.16 µM
  IC50: < 31.6 nM
Second compound 10 µM
  IC50: < 31.6 nM
[1]
  viability, T/C: 25.1%
[2]
  viability, T/C: 27.1%
[3]
  viability, T/C: 25.2%
[4]
  viability, T/C: 18.3%
[5]
  viability, T/C: 22.5%
[6]
  viability, T/C: 21.7%
[7]
  viability, T/C: 25.6%
[8]
  viability, T/C: 23.2%
[9]
  viability, T/C: 23.9%
[10]
  viability, T/C: 21.1%
[11]
  viability, T/C: 23%
[12]
  viability, T/C: 22.9%
[13]
  viability, T/C: 25.1%
[14]
  viability, T/C: 23.4%
[15]
  viability, T/C: 24%
[16]
  viability, T/C: 19.2%
[17]
  viability, T/C: 22.7%
[18]
  viability, T/C: 22.1%
[19]
  viability, T/C: 22.4%
[20]
  viability, T/C: 25.7%
[21]
  viability, T/C: 20.1%
[22]
  viability, T/C: 26.4%
[23]
  viability, T/C: 24.2%
[24]
  viability, T/C: 21.7%
[25]
  viability, T/C: 22.6%
[26]
  viability, T/C: 29.2%
[27]
  viability, T/C: 23.3%
[28]
  viability, T/C: 20.4%
[29]
  viability, T/C: 27%
[30]
  viability, T/C: 18.3%
[31]
  viability, T/C: 27.6%
[32]
  viability, T/C: 22.3%
[33]
  viability, T/C: 27%
[34]
  viability, T/C: 23.4%
[35]
  viability, T/C: 26.3%
[36]
  viability, T/C: 26.3%

## COc1cccc2c1C(=O)c1c(O)c3c(c(O)c1C2=O)CC(O)(C(=O)CO)CC3OC1CC(N)C(O)C(C)O1 (stereo unspecified) + Cc1cnc(CNC(=O)c2c(=O)c3ccc(N4CCCN(C)CC4)nc3n3c2sc2ccccc23)cn1
Second compound 0.0316 µM
  IC50: > 10000 nM
Second compound 0.1 µM
  IC50: 3670 nM
Second compound 0.316 µM
  IC50: < 31.6 nM
Second compound 1 µM
  IC50: < 31.6 nM
Second compound 3.16 µM
  IC50: < 31.6 nM
Second compound 10 µM
  IC50: < 31.6 nM
[1]
  viability, T/C: 83.7%
[2]
  viability, T/C: 79.4%
[3]
  viability, T/C: 67.2%
[4]
  viability, T/C: 75.3%
[5]
  viability, T/C: 73.1%
[6]
  viability, T/C: 55%
[7]
  viability, T/C: 54.3%
[8]
  viability, T/C: 71.3%
[9]
  viability, T/C: 58.3%
[10]
  viability, T/C: 51.1%
[11]
  viability, T/C: 53.6%
[12]
  viability, T/C: 42%
[13]
  viability, T/C: 52.8%
[14]
  viability, T/C: 39.7%
[15]
  viability, T/C: 42.1%
[16]
  viability, T/C: 40.4%
[17]
  viability, T/C: 60.5%
[18]
  viability, T/C: 42.2%
[19]
  viability, T/C: 50.6%
[20]
  viability, T/C: 40.2%
[21]
  viability, T/C: 37.1%
[22]
  viability, T/C: 43.2%
[23]
  viability, T/C: 52.2%
[24]
  viability, T/C: 38.8%
[25]
  viability, T/C: 38.5%
[26]
  viability, T/C: 41.3%
[27]
  viability, T/C: 41.3%
[28]
  viability, T/C: 41.8%
[29]
  viability, T/C: 51%
[30]
  viability, T/C: 27.4%
[31]
  viability, T/C: 44.9%
[32]
  viability, T/C: 40.2%
[33]
  viability, T/C: 46.6%
[34]
  viability, T/C: 50.5%
[35]
  viability, T/C: 36.8%
[36]
  viability, T/C: 11.8%

## O=C(c1cc(Cc2n[nH]c(=O)c3ccccc23)ccc1F)N1CCN(C(=O)C2CC2)CC1 + Cc1[nH]c2ccc(F)cc2c1-c1nc2c3cccnc3c3ncccc3c2[nH]1
Second compound 0.0316 µM
  IC50: > 10000 nM
Second compound 0.1 µM
  IC50: > 10000 nM
Second compound 0.316 µM
  IC50: > 10000 nM
Second compound 1 µM
  IC50: > 10000 nM
Second compound 3.16 µM
  IC50: > 10000 nM
Second compound 10 µM
  IC50: > 10000 nM
[1]
  viability, T/C: 107%
[2]
  viability, T/C: 113%
[3]
  viability, T/C: 98.3%
[4]
  viability, T/C: 102%
[5]
  viability, T/C: 89.5%
[6]
  viability, T/C: 81.1%
[7]
  viability, T/C: 108%
[8]
  viability, T/C: 119%
[9]
  viability, T/C: 88.3%
[10]
  viability, T/C: 99.5%
[11]
  viability, T/C: 124%
[12]
  viability, T/C: 95.5%
[13]
  viability, T/C: 93%
[14]
  viability, T/C: 90%
[15]
  viability, T/C: 72.6%
[16]
  viability, T/C: 115%
[17]
  viability, T/C: 102%
[18]
  viability, T/C: 118%
[19]
  viability, T/C: 91.5%
[20]
  viability, T/C: 100%
[21]
  viability, T/C: 108%
[22]
  viability, T/C: 92.3%
[23]
  viability, T/C: 92%
[24]
  viability, T/C: 68.3%
[25]
  viability, T/C: 81.1%
[26]
  viability, T/C: 98.3%
[27]
  viability, T/C: 89.7%
[28]
  viability, T/C: 88.1%
[29]
  viability, T/C: 97.9%
[30]
  viability, T/C: 88.8%
[31]
  viability, T/C: 106%
[32]
  viability, T/C: 110%
[33]
  viability, T/C: 88.2%
[34]
  viability, T/C: 80.2%
[35]
  viability, T/C: 101%
[36]
  viability, T/C: 83.7%
